Source: patent US12077503B2, “Substituted cyclic amides and their use as herbicides” (FMC CORPORATION, priority 2015, dated 2024)

Legend:
Format in all cases: in vivo
Kochia (Kochia scoparia) [1] = experiment: Test A preemergence; details: Bassia scoparia, pre-emergence, 240 h, 0 to 100 scale where 0 is no effect and 100 is complete control, read-out: Kochia plant response rating
Summary of the method: (§1)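 In a loam soil and sand blend, planted seeds got a preemergence directed soil spray, and young plants at the one- to two-leaf stage, 2–10 cm high, got a postemergence application; ~10 d greenhouse hold; injury rated visually, 0 = none, 100 = complete control.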

[2] = system: barnyardgrass (Echinochloa crus-galli); experiment: Test A preemergence; details: Echinochloa crus-galli, pre-emergence, 240 h, 0 to 100 scale where 0 is no effect and 100 is complete control, read-out: Barnyardgrass plant response rating
Summary of the method: as §1

[3] = system: giant foxtail (Setaria faberii); experiment: Test A preemergence; details: Setaria faberi, pre-emergence, 240 h, 0 to 100 scale where 0 is no effect and 100 is complete control, read-out: Foxtail, Giant plant response rating
Summary of the method: as §1

[4] = system: pigweed (Amaranthus retroflexus); experiment: Test A preemergence; details: Amaranthus retroflexus, pre-emergence, 240 h, 0 to 100 scale where 0 is no effect and 100 is complete control, read-out: Pigweed plant response rating
[5] = system: ragweed (common ragweed, Ambrosia elatior); experiment: Test A preemergence; details: Ambrosia artemisiifolia, pre-emergence, 240 h, 0 to 100 scale where 0 is no effect and 100 is complete control, read-out: Ragweed plant response rating
Summary of the method: as §1

[6] = system: ryegrass, Italian (Italian ryegrass, Lolium multiflorum); experiment: Test A preemergence; details: Lolium multiflorum, pre-emergence, 240 h, 0 to 100 scale where 0 is no effect and 100 is complete control, read-out: Ryegrass, Italian plant response rating
Summary of the method: as §1

[7] = system: Galium (catchweed bedstraw, Galium aparine); experiment: Test A postemergence; details: Galium, post-emergence, 240 h
Summary of the method: as §1

Kochia (Kochia scoparia) [8] = experiment: Test A postemergence; details: Bassia scoparia, post-emergence, 240 h
Summary of the method: as §1

[9] = system: barnyardgrass (Echinochloa crus-galli); experiment: Test A postemergence; details: Echinochloa crus-galli, post-emergence, 240 h
Summary of the method: as §1

[10] = system: blackgrass (Alopecurus myosuroides); experiment: Test A postemergence; details: Alopecurus myosuroides, post-emergence, 240 h
Summary of the method: as §1

corn (Zea mays) = experiment: Test A postemergence; details: Zea mays, post-emergence, 240 h
Summary of the method: as §1

[11] = system: giant foxtail (Setaria faberii); experiment: Test A postemergence; details: Setaria faberi, post-emergence, 240 h
Summary of the method: as §1

[12] = system: pigweed (Amaranthus retroflexus); experiment: Test A postemergence; details: Amaranthus retroflexus, post-emergence, 240 h
Summary of the method: as §1

[13] = system: ragweed (common ragweed, Ambrosia elatior); experiment: Test A postemergence; details: Ambrosia artemisiifolia, post-emergence, 240 h
Summary of the method: as §1

[14] = system: ryegrass, Italian (Italian ryegrass, Lolium multiflorum); experiment: Test A postemergence; details: Lolium multiflorum, post-emergence, 240 h
Summary of the method: as §1

[15] = system: wheat (Triticum aestivum); experiment: Test A postemergence; details: Triticum aestivum, post-emergence, 240 h
Summary of the method: as §1

[16] = system: barnyardgrass (Echinochloa crus-galli); experiment: Test B flooded paddy test; details: Echinochloa crus-galli, 250 g ai/ha, Flood; 0 to 100 scale where 0 is no effect and 100 is complete control; read-out: Barnyardgrass plant response rating
Summary of the method: (§2)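 2-leaf plants; pots flooded 3 cm over soil; cpd added to paddy water; depth held; greenhouse 13–15 d; visual rating vs controls, 0 = no effect, 100 = complete control.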

[17] = system: ducksalad (Heteranthera limosa); experiment: Test B flooded paddy test; details: Heteranthera limosa, 250 g ai/ha, Flood; 0 to 100 scale where 0 is no effect and 100 is complete control; read-out: Ducksalad plant response rating
Summary of the method: as §2

rice (Oryra sativa) = experiment: Test B flooded paddy test; details: Oryza sativa, 250 g ai/ha, Flood; 0 to 100 scale where 0 is no effect and 100 is complete control; read-out: Rice plant response rating
Summary of the method: as §2

[18] = system: sedge, umbrella (small-flower umbrella sedge, Cyperus difformis); experiment: Test B flooded paddy test; details: Cyperus difformis, 250 g ai/ha, Flood; 0 to 100 scale where 0 is no effect and 100 is complete control; read-out: Sedge, Umbrella plant response rating
Summary of the method: as §2

[19] = 125 g ai/ha, preemergence, approx. 10 d

Structure (SMILES): CSc1ccccc1NC(=O)[C@H]1C(=O)N(C)C[C@@H]1c1cc(C(F)F)cs1 [Compound 1088]
- pest or weed control at 31 g/ha (Kochia (Kochia scoparia) [1]; 31 g ai/ha, Preemergence): 30%
- pest or weed control at 125 g/ha (Kochia (Kochia scoparia) [1]; [19]): 20%
- pest or weed control at 31 g/ha ([2]; 31 g ai/ha, Preemergence): 0%
- pest or weed control at 125 g/ha [2, 19]: 30%
- pest or weed control at 31 g/ha ([3]; 31 g ai/ha, Preemergence): 0%
- pest or weed control at 125 g/ha [3, 19]: 100%
- pest or weed control at 31 g/ha ([4]; 31 g ai/ha, Preemergence): 0%
- pest or weed control at 125 g/ha [4, 19]: 0%
- pest or weed control at 31 g/ha ([5]; 31 g ai/ha, Preemergence): 0%
- pest or weed control at 125 g/ha [5, 19]: 0%
- pest or weed control at 31 g/ha ([6]; 31 g ai/ha, Preemergence): 0%
- pest or weed control at 125 g/ha [6, 19]: 0%
- pest or weed control at 125 g/ha ([7]; 125 g ai/ha, postemergence, visual injury on 0 to 100 scale (0 no effect, 100 complete control), approx. 10 d, read-out: Galium plant response rating): 30%
- pest or weed control at 31 g/ha ([7]; Postemergence, 31 g ai/ha, visual injury after approx. 10 d, 0 to 100 scale, 0 no effect, 100 complete control, read-out: Plant response rating, Galium): 20%
- pest or weed control at 125 g/ha (Kochia (Kochia scoparia) [8]; 125 g ai/ha, postemergence, visual injury on 0 to 100 scale (0 no effect, 100 complete control), approx. 10 d, read-out: Kochia plant response rating): 0%
- pest or weed control at 31 g/ha (Kochia (Kochia scoparia) [8]; Postemergence, 31 g ai/ha, visual injury after approx. 10 d, 0 to 100 scale, 0 no effect, 100 complete control, read-out: Plant response rating, Kochia): 0%
- pest or weed control at 125 g/ha ([9]; 125 g ai/ha, postemergence, visual injury on 0 to 100 scale (0 no effect, 100 complete control), approx. 10 d, read-out: Barnyardgrass plant response rating): 30%
- pest or weed control at 31 g/ha ([9]; Postemergence, 31 g ai/ha, visual injury after approx. 10 d, 0 to 100 scale, 0 no effect, 100 complete control, read-out: Plant response rating, Barnyardgrass): 0%
- pest or weed control at 125 g/ha ([10]; 125 g ai/ha, postemergence, visual injury on 0 to 100 scale (0 no effect, 100 complete control), approx. 10 d, read-out: Blackgrass plant response rating): 0%
- pest or weed control at 31 g/ha ([10]; Postemergence, 31 g ai/ha, visual injury after approx. 10 d, 0 to 100 scale, 0 no effect, 100 complete control, read-out: Plant response rating, Blackgrass): 0%
- plant injury at 125 g/ha (corn (Zea mays); 125 g ai/ha, postemergence, visual injury on 0 to 100 scale (0 no effect, 100 complete control), approx. 10 d, read-out: Corn plant response rating): 0%
- Corn plant response rating (crop injury, 0 = no effect, 100 = complete kill) at 31 g/ha (corn (Zea mays); Postemergence, 31 g ai/ha, visual injury after approx. 10 d, 0 to 100 scale, 0 no effect, 100 complete control): 0%
- pest or weed control at 125 g/ha ([11]; 125 g ai/ha, postemergence, visual injury on 0 to 100 scale (0 no effect, 100 complete control), approx. 10 d, read-out: Foxtail, Giant plant response rating): 20%
- pest or weed control at 31 g/ha ([11]; Postemergence, 31 g ai/ha, visual injury after approx. 10 d, 0 to 100 scale, 0 no effect, 100 complete control, read-out: Plant response rating, Foxtail, Giant): 0%
- pest or weed control at 125 g/ha ([12]; 125 g ai/ha, postemergence, visual injury on 0 to 100 scale (0 no effect, 100 complete control), approx. 10 d, read-out: Pigweed plant response rating): 0%
- pest or weed control at 31 g/ha ([12]; Postemergence, 31 g ai/ha, visual injury after approx. 10 d, 0 to 100 scale, 0 no effect, 100 complete control, read-out: Plant response rating, Pigweed): 0%
- pest or weed control at 125 g/ha ([13]; 125 g ai/ha, postemergence, visual injury on 0 to 100 scale (0 no effect, 100 complete control), approx. 10 d, read-out: Ragweed plant response rating): 0%
- pest or weed control at 31 g/ha ([13]; Postemergence, 31 g ai/ha, visual injury after approx. 10 d, 0 to 100 scale, 0 no effect, 100 complete control, read-out: Plant response rating, Ragweed): 0%
- pest or weed control at 125 g/ha ([14]; 125 g ai/ha, postemergence, visual injury on 0 to 100 scale (0 no effect, 100 complete control), approx. 10 d, read-out: Ryegrass, Italian plant response rating): 0%
- pest or weed control at 31 g/ha ([14]; Postemergence, 31 g ai/ha, visual injury after approx. 10 d, 0 to 100 scale, 0 no effect, 100 complete control, read-out: Plant response rating, Ryegrass, Italian): 0%
- plant injury at 125 g/ha ([15]; 125 g ai/ha, postemergence, visual injury on 0 to 100 scale (0 no effect, 100 complete control), approx. 10 d, read-out: Wheat plant response rating): 0%
- plant injury at 31 g/ha ([15]; Postemergence, 31 g ai/ha, visual injury after approx. 10 d, 0 to 100 scale, 0 no effect, 100 complete control, read-out: Plant response rating, Wheat): 0%
- pest or weed control at 250 g/ha [16]: 30%
- pest or weed control at 250 g/ha [17]: 75%
- pest or weed control at 250 g/ha (rice (Oryra sativa)): 0%
- pest or weed control at 250 g/ha [18]: 0%
